Holding throughout (assay): NCI-60 one-dose SRB screening
What all share (assay type): cell-based

One test relates to NCI-H226. As to conditions: Homo sapiens, NCI-H226, Non-Small Cell Lung Cancer, 10 µM one dose, 48 h, read-out: growth percentage.
The subject of a further test is OVCAR-5. As to conditions: Homo sapiens, OVCAR-5, Ovarian Cancer, 10 µM one dose, 48 h, read-out: growth percentage.
The subject of another test is SF-268. The settings on record: Homo sapiens, SF-268, CNS Cancer, 10 µM one dose, 48 h, read-out: growth percentage.
For the next test, the system named is SR. As to conditions: Homo sapiens, Leukemia, 10 µM one dose, 48 h, read-out: growth percentage.
Another test deals with KM12. As to conditions: Homo sapiens, KM12, Colon Cancer, 10 µM one dose, 48 h, read-out: growth percentage.
In another test the test system is HL-60(TB). The settings on record: Homo sapiens, Leukemia, 10 µM one dose, 48 h, read-out: growth percentage.
A further test relates to UO-31. As to conditions: Homo sapiens, UO-31, Renal Cancer, 10 µM one dose, 48 h, read-out: growth percentage.
In another test the test system is HT29. As to conditions: Homo sapiens, HT-29, HT29, Colon Cancer, 10 µM one dose, 48 h, read-out: growth percentage.
Another test relates to 786-0. The settings on record: Homo sapiens, 786-0, Renal Cancer, 10 µM one dose, 48 h, read-out: growth percentage.
The next test concerns MOLT-4. As to conditions: Homo sapiens, MOLT-4, Leukemia, 10 µM one dose, 48 h, read-out: growth percentage.
The test system of another test is M14. As to conditions: Homo sapiens, M14, Melanoma, 10 µM one dose, 48 h, read-out: growth percentage.
The subject of the next test is SF-539. As to conditions: Homo sapiens, SF-539, CNS Cancer, 10 µM one dose, 48 h, read-out: growth percentage.
For a further test, the system named is SK-MEL-28. As to conditions: Homo sapiens, SK-MEL-28, Melanoma, 10 µM one dose, 48 h, read-out: growth percentage.
The test system of the next test is SK-MEL-2. The settings on record: Homo sapiens, SK-MEL-2, Melanoma, 10 µM one dose, 48 h, read-out: growth percentage.
A further test relates to SN12C. As to conditions: Homo sapiens, Renal Cancer, 10 µM one dose, 48 h, read-out: growth percentage.
The next test deals with OVCAR-8. As to conditions: Homo sapiens, OVCAR-8, Ovarian Cancer, 10 µM one dose, 48 h, read-out: growth percentage.
The next test has as its system HCT-15. The settings on record: Homo sapiens, HCT-15, Colon Cancer, 10 µM one dose, 48 h, read-out: growth percentage.
The next test relates to OVCAR-4. As to conditions: Homo sapiens, OVCAR-4, Ovarian Cancer, 10 µM one dose, 48 h, read-out: growth percentage.
For another test, the system named is BT-549. The settings on record: Homo sapiens, BT-549, Breast Cancer, 10 µM one dose, 48 h, read-out: growth percentage.
A further test concerns U251. The settings on record: Homo sapiens, U-251, U251, CNS Cancer, 10 µM one dose, 48 h, read-out: growth percentage.
The subject of another test is PC-3. As to conditions: Homo sapiens, PC-3, Prostate Cancer, 10 µM one dose, 48 h, read-out: growth percentage.
For another test, the system named is SNB-19. As to conditions: Homo sapiens, SNB-19, CNS Cancer, 10 µM one dose, 48 h, read-out: growth percentage.

Turning to `[O-][n+]1onc(-c2ccccc2)c1COc1ccc(Nc2ncnc3c2cnn3-c2ccccc2)cc1` [6a, 4-phenyl-3-((4-((1-phenyl-1H-pyrazolo[3,4-d]pyrimidin-4-yl)amino)phenoxy)methyl)-1,2,5-oxadiazole 2-oxide], the activity at 10 µM with NCI-H226 is 111%; in the test on OVCAR-5, 110%; with SF-268, 103%; with SR it was 85.2%; in the test with KM12, 103%; in the test on HL-60(TB), 94.7%. Further, the activity at 10 µM in the test on UO-31 worked out at 94.2%; in the test on HT29 it was 96%; in the test on 786-0, 115%; in the test with MOLT-4 it was 87.4%; in the test with M14 it was 104%; in the test on SF-539, 95.7%. For the same compound, the activity at 10 µM with SK-MEL-28 amounted to 104%; in the test with SK-MEL-2, 105%; in the test with SN12C, 97.3%; in the test with OVCAR-8, 105%; in the test on HCT-15, 54.2%; with OVCAR-4, 130%. Besides, the activity at 10 µM with BT-549 came to 95.4%; with U251, 107%; in the test with PC-3, 98.1%; with SNB-19, 105%.

As to `Cc1nc(Nc2ccc(OCc3c(-c4ccccc4)no[n+]3[O-])cc2)c2cnn(-c3ccccc3)c2n1` [6b, 3-((4-((6-methyl-1-phenyl-1H-pyrazolo[3,4-d]pyrimidin-4-yl)amino)phenoxy)methyl)-4-phenyl-1,2,5-oxadiazole 2-oxide], the activity at 10 µM was 94.7% in the test on NCI-H226; 106% with OVCAR-5; 103% in the test on SF-268; 89.1% with SR; 102% with KM12; 122% in the test with HL-60(TB). The activity at 10 µM in the test on UO-31 amounted to 95%; in the test with HT29, 106%; in the test with 786-0, 95.8%; in the test on MOLT-4, 117%; in the test on M14 it was 103%; in the test on SF-539 it was 102%. Moreover, the activity at 10 µM with SK-MEL-28 came to 101%; in the test with SK-MEL-2, 109%; in the test with SN12C, 101%; in the test with OVCAR-8 it was 105%; in the test with HCT-15, 96.4%; in the test on OVCAR-4, 102%. For the same compound, the activity at 10 µM with BT-549 stood at 95%; in the test with U251, 104%; in the test with PC-3, 103%; in the test with SNB-19, 99.3%.

Take `Cc1nn(-c2ccccc2)c2ncnc(Nc3ccc(OCc4c(-c5ccccc5)no[n+]4[O-])cc3)c12` [6c, 3-((4-((3-methyl-1-phenyl-1H-pyrazolo[3,4-d]pyrimidin-4-yl)amino)phenoxy)methyl)-4-phenyl-1,2,5-oxadiazole 2-oxide]: the activity at 10 µM in the test on NCI-H226 is 97.3%; in the test on OVCAR-5, 104%; with SF-268 it was 96.5%; with SR it was 73.9%; in the test on KM12, 99.8%; in the test on HL-60(TB), 119%. Moreover, the activity at 10 µM in the test with UO-31 worked out at 77%; in the test on HT29, 93.2%; in the test on 786-0 it was 107%; in the test on MOLT-4, 92.9%; in the test with M14, 90.3%; in the test on SF-539, 96.2%. Further, the activity at 10 µM was 102% with SK-MEL-28; 103% in the test on SK-MEL-2; 87.9% in the test on SN12C; 101% in the test on OVCAR-8; 91.5% in the test on HCT-15; 90.6% in the test on OVCAR-4. The activity at 10 µM with BT-549 stood at 101%; in the test with U251, 97.2%; in the test on PC-3, 83.5%; with SNB-19 it was 101%.

Turning to `Cc1nc(Nc2ccc(OCc3c(-c4ccccc4)no[n+]3[O-])cc2)c2c(C)nn(-c3ccccc3)c2n1` [6d, 3-((4-((3,6-dimethyl-1-phenyl-1H-pyrazolo[3,4-d]pyrimidin-4-yl)amino)phenoxy)methyl)-4-phenyl-1,2,5-oxadiazole 2-oxide], the activity at 10 µM with NCI-H226 worked out at 101%; in the test on OVCAR-5, 101%; in the test on SF-268, 106%; with SR it was 102%; in the test with KM12, 104%; with HL-60(TB) it was 111%. The activity at 10 µM was found to be 88.5% in the test on UO-31; 119% in the test on HT29; 107% with 786-0; 110% in the test on MOLT-4; 96.2% with M14; 99.8% with SF-539. Moreover, the activity at 10 µM amounted to 102% in the test with SK-MEL-28; 121% in the test on SK-MEL-2; 98.4% with SN12C; 107% in the test with OVCAR-8; 104% in the test with HCT-15; 103% in the test on OVCAR-4. Also, the activity at 10 µM in the test on BT-549 was 102%; in the test with U251, 106%; in the test on PC-3, 99%; in the test on SNB-19 it was 99.6%.

Take `[O-][n+]1onc(-c2ccccc2)c1COc1ccc(Nc2ncnc3c2cnn3-c2ccc(Br)cc2)cc1` [6e, 3-((4-((1-(4-bromophenyl)-1H-pyrazolo[3,4-d]pyrimidin-4-yl)amino)phenoxy)methyl)-4-phenyl-1,2,5-oxadiazole 2-oxide]: the activity at 10 µM in the test on NCI-H226 stood at 104%; in the test with OVCAR-5, 98.8%; with SF-268, 101%; in the test on SR it was 98%; in the test with KM12, 103%; in the test with HL-60(TB), 96.1%. Also, the activity at 10 µM came to 84.7% in the test with UO-31; 94.5% in the test on HT29; 96.1% in the test on 786-0; 103% with MOLT-4; 102% in the test with M14; 98.4% in the test with SF-539. Also, the activity at 10 µM worked out at 99.3% with SK-MEL-28; 99.2% in the test with SK-MEL-2; 96.4% with SN12C; 105% in the test with OVCAR-8; 94.9% in the test with HCT-15; 100% in the test on OVCAR-4. In addition, the activity at 10 µM with BT-549 turned out to be 95.8%; in the test on U251, 102%; with PC-3, 97%; in the test with SNB-19, 103%.

For the compound `Cc1nn(-c2ccc(Br)cc2)c2nc(CCl)[nH]c(=O)c12` [13c], the activity at 10 µM with NCI-H226 is 102%; with OVCAR-5, 116%; in the test on SF-268, 99.4%; in the test on KM12, 83.6%; with UO-31, -90.1%; in the test on HT29 it was 104%. Moreover, the activity at 10 µM in the test with 786-0 amounted to 106%; in the test on M14, 106%; in the test on SF-539, 77%; in the test with SK-MEL-28, 99.9%; in the test on SK-MEL-2 it was 103%; in the test with SN12C, 100%. Further, the activity at 10 µM worked out at 102% with OVCAR-8; 103% in the test with HCT-15; 116% in the test with OVCAR-4; 101% in the test on BT-549; 99.7% with U251; 96.3% with PC-3. Moreover, in the test on SNB-19, the activity at 10 µM came to 97.1%.

The values above are taken from publication PMC8880564, “Design, Synthesis, and Biological Evaluation of a Novel VEGFR-2 Inhibitor Based on a 1,2,5-Oxadiazole-2-Oxide Scaffold with MAPK Signaling Pathway Inhibition” (Pharmaceuticals, 2022).
